Results as given in publication PMC6848745 (Psychopharmacology, 2018).
pKi: −log10 of the molar value.

Legend:
[1] = tested on: human subjects; conditions: ref Shulgin 2016, cited from earlier work
[2] = tested on: 5-HT2A sites labeled with [3H]ketanserin; conditions: rat frontal cortex / forebrain homogenate; ref Huang et al. 1994; cited from earlier work
[3] = tested on: [125I]DOI-labeled sites; test: Binding to [125I]DOI-labeled sites; parameters: species or system rat; conditions: from Ki values of Huang et al. 1994
[4] = target: [125I]DOI-labeled sites; conditions: read-out: Ki at [125I]DOI-labeled sites; ref Huang et al. 1994; cited from earlier work
[5] = tested on: C57BL/6J mice; test: Head twitch response; format: in vivo, mouse; conditions: for HTR Counts (Mean ± SEM): 30 min
[6] = tested on: rats trained to discriminate saline from LSD; conditions: ref Huang et al. 1994, cited from earlier work

Compound	doses producing LSD-like psychedelic effects ([1]; human subjects) [µg]	potency as a psychedelic in man relative to LSD [1]	fold lower affinity than LSD at [3H]ketanserin-labeled 5-HT2A sites [2]	affinity relative to LSD at [125I]DOI-labeled sites [3]	pKi [4]	HTR Counts (Mean ± SEM) ([5]; 0.1 mg/kg IP)	HTR Counts (Mean ± SEM) ([5]; 0.2 mg/kg IP)	HTR Counts (Mean ± SEM) ([5]; 0.4 mg/kg IP)	ED50, nmol/kg (95% CI) ([5]; IP, entire 30-min test session)	ED50, μg/kg (95% CI) ([5]; IP, entire 30-min test session)	potency in rats trained to discriminate saline from LSD ([6]; rat drug discrimination) [mg/kg]	fold lower potency than LSD in the rat drug discrimination paradigm [6] [fold]
CC(C)N(C)C(=O)[C@@H]1C=C2c3cccc4[nH]cc(c34)C[C@H]2N(C)C1 [MIPLA, N-methyl-N-isopropyl lysergamide]	180 to 300	one-third	6 fold	about 82%	8.76	12.3 ± 1.1	31.8 ± 1.9	26.6 ± 3.1	421.7 (360.5–493.1) nmol/kg	136.4 (116.6–159.5) μg/kg	0.036	
CCN(C(=O)[C@@H]1C=C2c3cccc4[nH]cc(c34)C[C@H]2N(C)C1)C(C)C [EIPLA, N-ethyl-N-isopropyl lysergamide]			three-fold									~3
